“Also recorded” adds a separate entry of the source.
Assays:
PPARγ2 mRNA = PPARγ2 mRNA induction by MDI in 3T3-L1 cells (RT-PCR); format: cell-based, murine; settings: compound present at 1×10^−10 M
Procedure: RT-PCR was carried out as described above with 0.5 μM each primer, 2 mM MgCl2, and 1×SYBR Green master mix.

[1] = Bone calcium mobilization (serum calcium on low calcium diet); format: in vivo, rat; settings: for bone calcium mobilization activity: result in words, vitamin D deficient rat model, compared to 1α,25(OH)2D3
Procedure: (§1) Male, weanling Sprague-Dawley rats were placed on Diet 11 (0.47% Ca) diet+AEK for one week followed by Diet 11 (0.02% Ca)+AEK for 3 weeks. The rats were then switched to a diet containing 0.47% Ca for one week followed by two weeks on a diet containing 0.02% Ca. Dose administration began during the last week on 0.02% calcium diet. Four consecutive ip doses were given approximately 24 hours apart. Twenty-four hours after the last dose, blood was collected from the severed neck and the concentration of serum calcium determined as a measure of bone calcium mobilization. The first 10 cm of the intestine was also collected for intestinal calcium transport analysis using the everted gut sac method.

3T3-L1 cells = experiment: Inhibition of 3T3-L1 differentiation into mature adipocytes (Oil-Red-O staining); format: cell-based, murine; settings: for inhibition of differentiation of 3T3-L1 cells into mature adipocytes (Oil-Red-O staining): result in words, MDI-treated cells, staining at day 10
Procedure: Various 19-nor vitamin D analogs were or are tested and found to inhibit the differentiation of preadipocytes into mature adipocytes, to reduce body fat, to inhibit an increase in PPARγ, C/EBPα, and/or SCD-1 gene transcription and to be useful in treating and preventing obesity both in vivo and in vitro. The undifferentiated preadipocyte 3T3-L1 subline, a derivative of the original mouse fibroblast cell line, is one of the most accepted models for investigating the adipogenesis process and was used for the analysis. Two days after reaching confluence, 3T3-L1 cells can be induced to differentiate into adipocytes (see Mackall, J. C. et al. J. Biol. Chem., 251(20), 6462-6464 (1976)) with the addition of a cAMP phosphodiesterase inhibitor, dexamethasone (a glucocortoid), and insulin. […] The induction of PPARγ and C/EBPα is required for adipocyte differentiation. […] SCD-1 is an enzyme found in adipocytes that converts saturated fatty acids (C16 and C18) to their monounsaturated forms (C16:1 and C18:1). The deposition of triglyceride can also be detected as early as 3 days, and by the 7th to 14th days post-confluence, greater than 80% of the cells in the monolayer stain positively with Oil-red-O.

[2] = Intestinal calcium transport (everted gut sac); format: in vivo; settings: result in words, vitamin D deficient rat model, compared to 1α,25(OH)2D3
Procedure: as §1

SCD-1 mRNA = experiment: Inhibition of SCD-1 mRNA induction in 3T3-L1 cells (RT-PCR); format: cell-based, murine; settings: for inhibition of SCD-1 mRNA induction: result in words, MDI-treated 3T3-L1 cells
Description: Chomczynski, P. et al., Anal. […] NO: 4)).

C/EBPα mRNA = C/EBPα mRNA induction by MDI in 3T3-L1 cells (RT-PCR); format: cell-based, murine; settings: compound present at 1×10^−10 M
Procedure: Analysis of C/EBPα was determined by PCR using murine primers (upstream=CGA GTA GGG GGA GCA AAA A (SEQ ID NO: 7); downstream=GCA AAA AGC MG GGA TTA GGA G (SEQ ID NO: 8)). RT-PCR was carried out as described above with 0.5 μM each primer, 2 mM MgCl2, and 1×SYBR Green master mix. The murine C/EBPα primers have a 60° C. annealing temperature and a 12 second extension time.

[3] = target: T1, full-length recombinant rat vitamin D receptor (Rattus norvegicus, UniProt P13053); experiment: Vitamin D receptor binding (competition with 3H-1,25(OH)2D3); settings: for binding to the vitamin D receptor, compared to 1α,25(OH)2D3: result in words, competition for tritiated hormone binding
T1 construct: Full-length recombinant rat receptor was expressed in E. coli; histidine tag (C); made in house; host or cells: E. coli BL21(DE3) Codon Plus RIL
T1 sequence (P13053 1-423): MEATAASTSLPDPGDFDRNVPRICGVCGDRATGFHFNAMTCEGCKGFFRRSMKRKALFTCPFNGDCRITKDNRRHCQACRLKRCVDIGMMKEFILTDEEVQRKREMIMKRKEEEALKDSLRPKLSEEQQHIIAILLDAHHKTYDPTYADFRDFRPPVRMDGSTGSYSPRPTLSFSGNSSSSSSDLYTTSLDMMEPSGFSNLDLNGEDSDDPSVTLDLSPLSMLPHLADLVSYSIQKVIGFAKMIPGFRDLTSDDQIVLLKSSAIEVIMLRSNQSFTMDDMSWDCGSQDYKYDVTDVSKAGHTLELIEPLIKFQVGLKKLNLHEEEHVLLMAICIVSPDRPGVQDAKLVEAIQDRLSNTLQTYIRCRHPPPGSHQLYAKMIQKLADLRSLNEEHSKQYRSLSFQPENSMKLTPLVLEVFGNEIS
Procedure: Full-length recombinant rat receptor was expressed in E. coli BL21(DE3) Codon Plus RIL cells and purified to homogeneity using two different column chromatography systems. The first system was a nickel affinity resin that utilizes the C-terminal histidine tag on this protein. The protein that was eluted from this resin was further purified using ion exchange chromatography (S-Sepharose Fast Flow). Aliquots of the purified protein were quick frozen in liquid nitrogen and stored at −80° C. until use. For use in binding assays, the protein was diluted in TEDK50 (50 mM Tris, 1.5 mM EDTA, pH 7.4, 5 mM DTT, 150 mM KCl) with 0.1% Chaps detergent. The receptor protein and ligand concentration was optimized such that no more than 20% of the added radiolabeled ligand was bound to the receptor.
Unlabeled ligands were dissolved in ethanol and the concentrations determined using UV spectrophotometry (1,25(OH)2D3: molar extinction coefficient=18,200 and λmax=265 nm; Analogs: molar extinction coefficient=42,000 and λmax=252 nm). Radiolabeled ligand (^3H-1,25(OH)2D3, ˜159 Ci/mmole) was added in ethanol at a final concentration of 1 nM.
Radiolabeled and unlabeled ligands were added to 100 mcl of the diluted protein at a final ethanol concentration of ≦10%, mixed and incubated overnight on ice to reach binding equilibrium. The following day, 100 mcl of hydroxylapatite slurry (50%) was added to each tube and mixed at 10-minute intervals for 30 minutes. The hydroxylapaptite was collected by centrifugation and then washed three times with Tris-EDTA buffer (50 mM Tris, 1.5 mM EDTA, pH 7.4) containing 0.5% Titron X-100. After the final wash, the pellets were transferred to scintillation vials containing 4 ml of Biosafe II scintillation cocktail, mixed and placed in a scintillation counter. Total binding was determined from the tubes containing only radiolabeled ligand.

[4] = tested on: parathyroid hormone (PTH); experiment: PTH suppression (serum PTH); format: in vivo, rat; settings: result in words; normal/adult rats
Procedure: Adult, female Sprague-Dawley rats were obtained from Harlan (Madison, Wis.).
Upon receipt, the animals were identified by individual tail marks. Animals were housed in suspended, stainless steel, wire-bottom cages. Each cage contained one animal. The animal rooms were maintained at a temperature of 68 to 72° F. and a relative humidity of 25 to 75%. The holding rooms were set to provide 12 hours of light per day. Water and a purified rodent diet (Suda et al., Purified Rodent Diet-Diet 11) containing […] 0.3% phosphorus and fat soluble vitamins A, D, E and K were provided ad libitum.
Animals were randomly assigned to treatment groups (5 animals/group). All doses were administered intraperitoneally in 100 microliters of propylene glycol. Four to seven consecutive doses were given approximately 24 hours apart. Dosing was initiated after the animals had been allowed to acclimate for at least one week.
Both control and test articles were administered by intraperitoneal injection in 100 microliters for 4-7 consecutive days spaced approximately 24 hours apart. 1,25(OH)2D3 was given for 4 consecutive days, whereas, the test drugs were given for 7 consecutive days.
Twenty-four hours after the final dose, blood was collected from the tail artery and the concentration of bioactive serum PTH was measured using the rat BioActive Intact PTH ELISA Kit from Immutopics, Inc. (San Clemente, Calif.).

[5] = Hypercalcemia / serum calcium analysis; format: in vivo, rat
[6] = tested on: 24-hydroxylase (24Ohase) gene promoter in ROS 17/2.8 (bone) cells; experiment: In vitro transcription assay (luciferase reporter); format: cell-based; settings: for transcriptional activity in bone cells, compared to 1α,25(OH)2D3: result in words
Procedure: Transcription activity was measured in ROS 17/2.8 (bone) cells that were stably transfected with a 24-hydroxylase (24Ohase) gene promoter upstream of a luciferase reporter gene (Arbour et al., 1998). Cells were given a range of doses. Sixteen hours after dosing the cells were harvested and luciferase activities were measured using a luminometer. RLU=relative luciferase units.

[7] = tested on: Human promyelocytic leukemia (HL60) cells; experiment: HL-60 differentiation (nitro blue tetrazolium reduction); format: cell-based
Procedure: The study drugs were dissolved in ethanol and the concentrations determined using UV spectrophotometry. Serial dilutions were prepared so that a range of drug concentrations could be tested without changing the final concentration of ethanol (≦0.2%) present in the cell cultures.
Human promyelocytic leukemia (HL60) cells were grown in RPMI-1640 medium containing 10% fetal bovine serum. The cells were incubated at 37° C. in the presence of 5% CO2.
HL60 cells were plated at 1.2×10^5 cells/ml. Eighteen hours after plating, cells in duplicate were treated with drug. Four days later, the cells were harvested and a nitro blue tetrazolium reduction assay was performed (Collins et al., 1979; J. Exp. Med. 149:969-974). The percentage of differentiated cells was determined by counting a total of 200 cells and recording the number that contained intracellular black-blue formazan deposits. Verification of differentiation to monocytic cells was determined by measuring phagocytic activity (data not shown).

| Structure (SMILES) | bone calcium mobilization activity [1] | inhibition of differentiation of 3T3-L1 cells into mature adipocytes (Oil-Red-O staining) (3T3-L1 cells) | intestinal calcium transport activity [2] | binding to the vitamin D receptor, compared to 1α,25(OH)2D3 [3] | suppression of parathyroid hormone (PTH) [4] | transcriptional activity in bone cells, compared to 1α,25(OH)2D3 [6] | differentiation of HL-60 cells, times less active than 1α,25(OH)2D3 [7] | further results |
| --- | --- | --- | --- | --- | --- | --- | --- | --- |
| C=C1[C@H](O)CC(=C/C=C2\CCC[C@]3(C)[C@@H]([C@@H](C)CCCC(C)(C)O)CC[C@@H]23)C[C@H]1O [2-MD] | active | highest activity; also recorded: so much greater; also recorded: inhibit | active | as well as the native hormone | – | – | – | PPARγ mRNA induction by MDI (PPARγ2 mRNA): prevented these mRNAs from being upregulated; also recorded: not induced; EC50 (SCD-1 mRNA; Mus musculus, 3T3-L1, 96 h, SCD-1 mRNA at 4 days, read-out: EC50 for inhibition of murine 3T3-L1 expression of SCD-1 mRNA): ~2.9 pM; times more potent than the native hormone calcitriol (SCD-1 mRNA; inhibition of 3T3-L1 differentiation (FIG. 2 and FIG. 3)): at least 70 times; C/EBPα mRNA induction by MDI (C/EBPα mRNA): prevented these mRNAs from being upregulated; also recorded: not induced |
| C=C1[C@H](O)CC(=C/C=C2\CCC[C@]3(C)[C@@H]([C@@H](C)CCC)CC[C@@H]23)C[C@H]1O [2MtrisP] | very little bone calcium mobilization activity | increased slightly | some ability to elevate intestinal calcium transport; also recorded: less activity | almost equal to the native hormone; also recorded: as or nearly effective as calcitriol | remarkably effective | within one order of magnitude | – | bone calcium mobilizing activity ([1]; very high dose of 2340 pmol/day): little bone calcium mobilizing activity; inhibition of differentiation of 3T3-L1 cells into mature adipocytes (Oil-Red-O staining) (3T3-L1 cells; listed as (20S)2M-trisP): still possess activity; inhibition of SCD-1 mRNA induction (SCD-1 mRNA): increased slightly; inhibition of SCD-1 mRNA induction (SCD-1 mRNA; listed as (20S)2M-trisP): still possess activity; serum calcium concentrations ([5]; adult rats, PTH suppression study): not raising serum calcium concentrations; differentiation of HL-60 cells, compared to 1α,25(OH)2D3 ([7]; result in words): equal in activity |
| C=C1[C@H](O)CC(=C/C=C2\CCC[C@]3(C)[C@@H](CCC)CC[C@@H]23)C[C@H]1O [19,21-dinor, 2-methylene-19,21-dinor-1α-hydroxybishomopregnacalciferol] | no calcemic activity | – | no calcemic activity | – | significant activity | active | about 15 times | vitamin D receptor binding, times less active than 1α,25-dihydroxyvitamin D3 ([3]; less active than 1α,25-dihydroxyvitamin D3): about 5 times |
| C=C1[C@H](O)CC(=C/C=C2\CCC[C@]3(C)[C@@H]([C@H](C)CC)CC[C@@H]23)C[C@H]1O [(20R)2MbisP] | does not support | nearly equipotent | does not support | approximately equally effective | considerable activity | – | about 5 times | bone calcium mobilization activity ([1]; listed as (20R)2-MbisP): very little bone calcium mobilization activity; inhibition of differentiation of MDI-treated 3T3-L1 cells (oil-red-O staining) (3T3-L1 cells; tested at 1×10^−8.5 M): active; intestinal calcium transport activity ([2]; listed as (20R)2-MbisP): less activity; inhibition of SCD1 mRNA induction (SCD-1 mRNA; tested at 1×10^−8.5 M): active; hypercalcemia in adult rats ([5]; doses as high as 45 nmol/day): failed to cause hypercalcemia; transcription of reporter gene coupled to the CYP-24 promoter, times less active than 1α,25-(OH)2D3 ([6]; less active than 1α,25-(OH)2D3): about 5 times |

From patent US8188064B2, “Vitamin D analogs for obesity prevention and treatment” (Wisconsin Alumni Research Foundation, priority 2003, dated 2012)
